Measurements: US7358046B2, “Sensitivity test to predict efficacy of anti-cancer therapies” (Canbas Co., Ltd., priority 2003, dated 2008)
Entries after “also recorded” stand apart in the source; their conditions may differ. Non-standard residues stand in square brackets, D forms with d. No end group written: not given here. dPhe(F5) = N[C@H](Cc1c(F)c(F)c(F)c(F)c1F)C(=O)O; dBpa = N[C@H](Cc1ccc(C(=O)c2ccccc2)cc1)C(=O)O; dCha = N[C@H](CC1CCCCC1)C(=O)O

Legend:
HCT-116 cells = assay: In vitro sensitivity test: DNA content of cells by flow cytometry; format: cell-based, human; conditions: for change in DNA content (cell cycle distribution) of HCT-116 cells: compound alone, 2, 10, or 50 μM for 3 hr
Protocol: Cells from a human colon cancer derived cell line HCT-116 were used in an in vitro sensitivity test that measures DNA content of cells by flow cytometry, and in an in vivo efficacy test that measures xenograft tumor growth. The effects of conventional anti-cancer therapy CPT-11, novel candidate anti-cancer therapy CBDC402, a combination of the two compounds, or control treatments (vehicle), were measured in each test system and compared.
In vitro sensitivity test: HCT-116 cells (from ATCC) were cultured in McCOY5A medium (Sigma Chemical Co.) with L-glutamine (Sigma Chemical Co.), penicillin-streptomycin, and 10% fetal calf serum at 37° C. in 5% CO2/air. Cultured cells (at 1.6×10^5) were pelleted by centrifugation, and then re-suspended and incubated in 300 μl Krishan's solution (0.1% sodium citrate, 50 μg/ml propidium iodide, 20 μg/ml RNase A, 0.5% Nonidet P-40) for 1 h at 4° C. The quantity of DNA in each cell was determined using a fluorescence activated cell scanner (FACScan® Beckton Dickinson, Mountain View, Calif.), and results were analyzed using CELLQuest® software (Beckton Dickinson).
The DNA content of each cell was measured at 24 hr.
In vitro sensitivity test: The in vitro sensitivity test using HCT-116 cells and flow cytometry was carried out as described above, with the modification that CBDC004 was used instead of CBDC402. The DNA content of each cell was measured at 24 hr.

HCT-116 xenografts = assay: Surrogate in vivo efficacy test: HCT-116 xenograft tumor assay; parameters: species or system SCID mice; conditions: for HCT-116 xenograft tumor growth, combination: intraperitoneal, two weeks
Protocol: HCT-116 cells were implanted by subcutaneous injection of the cells into male SCID mice (Severe Combined Immunodeficient mice, Charles River Lab., Wilmington, Mass.). Treatment was initiated when the tumor size reached about 0.2 cm^3 in size. The size of tumors was measured three times per week, using calipers. Tumor volumes were calculated as follows: volume (cm^3)=[width (mm)^2×length (mm)]/2000. Mean tumor sizes (volumes) with standard deviation were plotted (FIG. 1b). Animals were housed in accordance with guidelines from American Association for Laboratory Animal Care and the protocols were approved by institutional animal care committee of CanBas Co. Ltd
(§1) Established HCT-116 xenografts (0.2 cm^3) in SCID mice were treated for two weeks by intraperitoneal injection of the following: vehicle alone (DMSO, two times per week), CBDC402 (40 mg/kg; two times per week), CPT-11 (20 mg/kg; one time per week) or the combination of CBDC402 (two times per week) and CPT-11 (one time per week). […] The results correlate with the prediction based on results from the in vitro sensitivity test using CBDC004 as described above.
Surrogate in vivo efficacy test: A surrogate in vivo efficacy test measuring the effects of various compounds on HCT-116 xenograft tumor growth was carried out as described above, with the modification that CBDC004 was used instead of CBDC402.
as §1, with “week), CBDC004 (30” for “week), CBDC402 (40”, “mg/kg; three” for “mg/kg; two”

[1] = test system: MIAPaCa2 cells xenograft tumors; assay: Surrogate in vivo efficacy test: MIAPaCa2 xenograft tumor assay; parameters: species or system SCID mice
Protocol: Surrogate in vivo efficacy test: A surrogate in vivo efficacy test using the xenograft tumor assay was carried out as described above, with modifications. MIAPaCa2 cells (n=5) were implanted by subcutaneous injection of the cells to male SCID mice (Charles River Lab., Wilmington, Mass.). Treatment was initiated when tumor size reached about 0.15 cm^3 in size. The size of tumors was measured three times per week, using calipers. Tumor volumes were calculated as follows: volume (cm^3)=[width (mm)^2×length (mm)]/2000. Mean tumor sizes (volumes) with standard deviation were plotted (FIG. 1b). Animals were housed in accordance with guidelines from American Association for Laboratory Animal Care and the protocols were approved by institutional animal care committee of CanBas Co. Ltd.
Established […] xenografts (0.2 cm^3) in SCID mice were treated two times each week for two weeks (i.e., on day 1, 5, 8, and 12) by intraperitoneal injection of the following: vehicle alone (DMSO); CBP501 (120 mg/m^2); cisplatin (CDDP, 3 mg/kg); a combination of CBP501 (30 mg/m^2) and cisplatin (CDDP, 3 mg/kg); a combination of CBP501 (60 mg/m^2) and cisplatin (CDDP, 3 mg/kg); or CBP501 (120 mg/m^2) and cisplatin (CDDP, 3 mg/kg).

MIAPaCa2 cells = assay: In vitro sensitivity test: laser scanning cytometry of cultured xenograft tumor cells on chamber slides; conditions: for anti-cancer efficacy in vitro, human cancerous cells in culture: each compound alone (summary of Example 3)
Protocol: As a simulation of the sensitivity test for the clinical situation, established xenograft tumors of MIAPaCa2 cells in SCID mice were extracted from the mice and cultured in vitro in the presence or absence of a conventional anti-cancer therapy and a novel candidate anti-cancer therapy CBP501 (SEQ ID NO: 26), according to the protocol as follows.
Xenograft tumors of MIAPaCa2 cells were excised from xenograft tumor bearing mice and place in a 10 cm plate with 10 ml of complete culture medium (DMEM (Dainihonseiyaku Co., Osaka, Japan) with 2.5% horse serum (Invitrogen Co., Carlsbad, Calif.) for MIAPaCa2 with 10% fetal calf serum (Equitech-bio, Kerrville, Tex.) at 37° C. with 5% CO2/air). The tissue was sliced into small pieces and non-tumor tissue was removed to the extent possible. The sliced pieces were placed in another 10 cm plate with complete culture medium and minced with a razor blade. The cells were then dispersed in culture medium by pipetting, and centrifuged for 5 min at 1200×g.
The cell pellet was then incubated in buffer containing collagenase for 2 hours at 37° C. After centrifuging a second time, the cell pellet was incubated in buffer containing trypsin for 5 min at room temperature, then suspended in the culture medium, passed through nylon mesh, and re-centrifuged. Pelleted cells were resuspended and the resuspended cells were seeded onto chamber slides and cultured overnight in an incubator.
Cells in chamber slides were treated with anti-cancer therapies or control treatments as follows: control solution, CBP501 (SEQ ID NO: 26) at 10 μM, cisplatin (CDDP) at 10 μg/ml, or a combination of CBP501 and cisplatin were added to chamber slides and incubated for 3 hours. Culture medium was changed and chamber slides were cultured for an additional 24 to 48 hours.
At the beginning of the designated day (day 3, 4, or 5), medium was aspirated from chamber slides and cells were fixed by addition of 70% ethanol followed by incubation for 15 minutes at room temperature. The supernatant was discarded, and phosphate buffered saline with 50 μg/ml propidium iodide (Sigma, St. Louis, Mo.) with 0.1% RNase (Sigma) was added to the slides and incubated for 30 minutes at room temperature. Cells on the chamber slides were then analyzed by Laser Scanning Cytomery (LSC® System, with Olympus microscope).

[2] = compound 2, 10, 50 μM for 3 hr in combination with CPT-11 50 μM for 3 hr, measured at 24 hr
[3] = CBP501 10 μM combined with cisplatin 10 μg/ml, 3 hours, then cultured 24 to 48 hours
[4] = CPT-11 alone, 50 μM for 3 h, DNA content measured at 24 hr

With `Cc1ccc(OC(=O)c2ccc(Br)cc2)cc1` [CBDC402, 4-Bromo-benzoic acid p-tolyl ester] the “change in DNA content / G2/M and G1 populations of HCT-116 cells, combination treatment” value (HCT-116 cells; [2]) was “decrease in the accumulation of both the CPT-11-induced G2/M population and G1 population”, the “subG1 (dead cell) population of HCT-116 cells, combination treatment” value (HCT-116 cells; [2]) was “increase in the subG1 (dead cell) population” and the “change in DNA content (cell cycle distribution) of HCT-116 cells” value (HCT-116 cells; DNA content measured at 24 hr) was “did not alter the DNA content”. For the same compound, the “HCT-116 xenograft tumor growth, combination” value (HCT-116 xenografts; CBDC402 (two times per week) plus CPT-11 (one time per week)) was “strong tumor suppressive activity” and the “HCT-116 xenograft tumor growth” value (HCT-116 xenografts; CBDC402 alone, 40 mg/kg intraperitoneal, two times per week for two weeks) was “did not suppress tumor growth significantly”.

In the case of “(d-Bpa)(d-Ser)(d-Trp)(d-Ser)(d-Phe-2,3,4,5,6-F)(d-Cha)(d-Arg)(d-Arg)(d-Arg)(d-Gln)(d-Arg)(d-Arg) ([dBpa][dS][dW][dS][dPhe(F5)][dCha][dR][dR][dR][dQ][dR][dR]) [CBP501]”, the “xenograft tumor growth, combination” value ([1]; CBP501 (30, 60 or 120 mg/m^2) combined with cisplatin 3 mg/kg, intraperitoneal, two times each week for two weeks) is reported as “more effective than either compound alone; also recorded: significant inhibition of xenograft tumor growth”, the xenograft tumor growth ([1]; CBP501 alone, 120 mg/m^2 intraperitoneal, two times each week for two weeks (day 1, 5, 8, 12)) is reported as “little or no effect on tumor growth; also recorded: did not significantly inhibit xenograft tumor growth” and the “G1 and G2/M peaks of cultured MIAPaCa2 xenograft tumor cells, combination” value (MIAPaCa2 cells; [3]) is reported as “dramatically decreased both the G1 and G2/M peaks”. The “sub-G1 population of cultured MIAPaCa2 xenograft tumor cells, combination” value (MIAPaCa2 cells; [3]) was “increased the sub-G1 population”, the “change in cell cycle distribution of cultured MIAPaCa2 xenograft tumor cells” value (MIAPaCa2 cells; CBP501 alone, 10 μM for 3 hours, then cultured 24 to 48 hours) was “cell cycle distribution was not significantly altered” and the “cell death in the population of tumor cells by direct observation of cell morphology, combination” value (MIAPaCa2 cells; CBP501 combined with cisplatin) was “dramatic increase in cell death”. For the same compound, the “anti-cancer effect in vitro, human cancerous cells in culture, combination” value (MIAPaCa2 cells; CBP501 combined with cisplatin (summary of Example 3)) was “more pronounced anti-cancer effect” and the “anti-cancer efficacy in vitro, human cancerous cells in culture” value (MIAPaCa2 cells) was “some anti-cancer efficacy”.

For `N.N.[Cl][Pt][Cl]` [cisplatin, reference compound], the xenograft tumor growth ([1]; cisplatin alone, 3 mg/kg intraperitoneal, two times each week for two weeks) was “little or no effect on tumor growth”, the “change in cell cycle distribution of cultured MIAPaCa2 xenograft tumor cells” value (MIAPaCa2 cells; cisplatin alone, 10 μg/ml for 3 hours, then cultured 24 to 48 hours) was “accumulation of cells in G2/M phase” and the “anti-cancer efficacy in vitro, human cancerous cells in culture” value (MIAPaCa2 cells) was “some anti-cancer efficacy”.

For `COc1ccc(OC(=O)c2ccc(Cl)cc2)cc1` [CBDC004, 4-Chloro-benzoic acid 4-methoxy-phenyl ester], the “change in DNA content / G2/M and G1 populations of HCT-116 cells, combination treatment” value (HCT-116 cells; [2]) was “did not change the DNA content more than CPT-11 alone”, the “change in DNA content (cell cycle distribution) of HCT-116 cells” value (HCT-116 cells; DNA content measured at 24 hr) was “did not alter the DNA content” and the “HCT-116 xenograft tumor growth” value (HCT-116 xenografts; CBDC004 alone, 30 mg/kg intraperitoneal, three times per week for two weeks) was “did not suppress tumor growth”. For the same compound, the “HCT-116 xenograft tumor growth, combination” value (HCT-116 xenografts; CBDC004 in combination with CPT-11 (one time per week)) was “did not suppress tumor growth”.

For `CCc1c2c(nc3ccc(OC(=O)N4CCC(N5CCCCC5)CC4)cc13)-c1cc3c(c(=O)n1C2)COC(=O)[C@]3(O)CC` [CPT-11, irinotecan, reference compound], the “change in cell cycle distribution (G1, G2/M populations) of HCT-116 cells” value (HCT-116 cells; [4]) was “changed the cell cycle distribution dramatically”, the “sub-G1 (dead cell) population of HCT-116 cells” value (HCT-116 cells; [4]) was “no increase in the sub-G1 population” and the “HCT-116 xenograft tumor growth” value (HCT-116 xenografts; CPT-11 alone, 20 mg/kg intraperitoneal, one time per week for two weeks) was “moderate tumor suppressive activity”.
